Data: patent EP0309424A2, “New amidino derivatives” (ISTITUTO DE ANGELI S.p.A., priority 1987, dated 1989)
Where a name gives a salt, the structure may show the parent alone.

biological target: T1, muscarinic receptors of the cerebral cortex (Rattus norvegicus, UniProt P08482); assay: Antimuscarinic activity (in vitro binding studies): displacement of 3H-pirenzepine from cerebral cortex homogenate; parameters: species or system male CD-COOBBS rats; conditions: not given
T1 construct: displacement of ^3H-pirenzepine from cerebral cortex homogenate; from tissue; host or cells: rat cerebral cortex homogenate
T1 sequence (P08482 1-460): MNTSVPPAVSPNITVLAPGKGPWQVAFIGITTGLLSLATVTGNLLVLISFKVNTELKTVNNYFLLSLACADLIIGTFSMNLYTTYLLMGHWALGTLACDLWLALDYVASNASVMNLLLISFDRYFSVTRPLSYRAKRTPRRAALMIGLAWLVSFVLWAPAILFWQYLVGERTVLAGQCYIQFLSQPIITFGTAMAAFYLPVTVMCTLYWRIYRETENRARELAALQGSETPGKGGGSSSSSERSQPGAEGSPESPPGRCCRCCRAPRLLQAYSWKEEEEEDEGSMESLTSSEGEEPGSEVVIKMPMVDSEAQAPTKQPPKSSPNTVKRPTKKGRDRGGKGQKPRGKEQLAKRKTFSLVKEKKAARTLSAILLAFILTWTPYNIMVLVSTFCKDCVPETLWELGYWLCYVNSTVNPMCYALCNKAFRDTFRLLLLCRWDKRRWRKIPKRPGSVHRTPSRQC
Description: Antimuscarinic activity was examined by studying the displacement of ^3H-pirenzepine from cerebral cortex homogenate according to the procedure reported below: • The cerebral cortex donors were male CD-COOBBS rats, 220-250 g body weight. The homogenization process was carried out in a Potter-Evelhjem apparatus in the presence of Na^+/Mg^++ HEPES buffer; pH 7.4 (100 mM NaCI, 10 mM MgC12, 20 mM HEPES), by filtering the suspension through two layers of cheesecloth. Binding curves for the under study compounds were derived indirectly from competition experiments against 0.5 nM ^3H-pirenzepine labelling the muscarinic receptors of the cerebral cortex. 1 ml of the homogenate was incubated for 45 min at 30° C in the presence of a marker ligand and different concentrations of the cold ligand, conditions under which equilibrium was reached as determined by appropriate association experiments. The incubation was terminated by centrifugation (12,000 rpm for 3 min) at room temperature using an Eppendorf microcentrifuge. The resultant pellet was washed twice with 1.5 ml saline to remove the free radioactivity and it was allowed to drain for some hours. The tips of the tubes containing the pellet were cut off and 200 µl of tissue solubilizer (Lumasolve, Lumac) were added and left to stand overnight. Radioactivity was then counted after addition of 4 ml of liquid scintillation mixture (Dimilume/Toluene 1:10 v:v, Packard)
Non-specific binding avaraged less than 30%. KD values (dissociation constants) were obtained by non-linear regression analysis on the basis of a one binding site model with TOPFIT-pharmacokinetic programme package (G. HEINZEL, "Pharmacokinetics during drug development: data analysis and evaluation techniques" Eds. G. BOLZER and J.M. VAN ROSSUM; p. 207, G. Fisher, New York, 1982) after correction for the radioligand occupancy shift according to the equation: Ko = ICso/1 + *C/*KD, where "C and *KD represent the concentration and the dissociation constant of the radioligand used, respectively.

Compound	Ki [µM]
N=C(N)N1C2CCC1CC(OC(=O)C(CO)c1ccccc1)C2 (racemic) [Compound 1, N-guanyl-Noratropine]	0.007
CC(=N)N1C2CCC1CC(OC(=O)C(CO)c1ccccc1)C2 (racemic) [Compound 64, N-iminoethyl-noratropine]	0.0034
CC(=N)N1C2CC(OC(=O)C(CO)c3ccccc3)CC1C1OC12 (single isomer, unassigned; (-)) [Compound 65, (-)-N-iminoethyl-norscopolamine]	0.002

same assay, conditions: competition against 0.5 nM 3H-pirenzepine, rat cerebral cortex homogenate, 45 min at 30° C, corrected for radioligand occupancy shift; read-out: Dissociation constants (KD) for 3H-pirenzepine binding

Compound	Ki [µM]
N=C(N)N1CCN(CC(O)(c2ccccc2)C2CCCCC2)CC1 (stereo not shown) [Compound 4, N-guanyl-N'-[(2-phenyl-2-cyclohexyl-2-hydroxy)-ethyl]-piperazine]	0.017
N=C(N)N1CCC(OC(=O)C(c2ccccc2)c2ccccc2)CC1 [Compound 14, Benzeneacetic acid,a-phenyl-,1-guanyl-4-piperidinyl ester]	0.015
N=C(N)N1CCC(CC(O)(c2ccccc2)c2ccccc2)CC1 [Compound 24, 2-[(N-guanyl-piperidin-4-yl)]-1,1-diphenyl-ethanol]	0.038
CN=CN1CCC(=C(c2ccccc2)c2ccccc2)CC1 [Compound 28, Piperidine,4-(diphenylmethylene)-,1-[N-methyl-(iminomethyl)]]	0.032
N=CN1CCC(OC(=O)C(c2ccccc2)c2ccccc2)CC1 [Compound 34, Benzeneacetic acid,α-phenyl,1-(iminomethyl)-4-piperidinyl ester, hydrochloride]	0.0044
N=CN1CCN(CC(O)(c2ccccc2)C2CCCCC2)CC1 (stereo not shown) [Compound 35, N-iminomethyl-N'-[(2-hydroxy-2-phenyl-2-cydohexyl)-ethyl]-piperazine]	0.012
CC(=N)N1CCN(CC(O)(c2ccccc2)C2CCCCC2)CC1 (stereo not shown) [Compound 62, N-(iminoethyl)-N'-[(2-hydroxy-2-phenyl-2-cyclohexyl)ethyl]-piperazine]	0.03
